According to patent publication US4127572A, “Method of using 2(1H)-quinazolinethiones” (The Dow Chemical Company, priority 1978, dated 1978):

Key:
[1] = tested on: stress induced rise of serum corticosteroid levels; experiment: Block of stress induced rise of serum corticosteroid levels in rats; assay type: in vivo; conditions: 10 mg/kg intraperitoneal, stressed male rats; values less than 1.0 indicative of activity
Experimental: See British Medical Journal, 1971(2), p. 310-313. Corticosteroid levels were compared between stressed male rats pretreated with 10 mg/kg given by intraperitoneal injection to corticosteroid levels of stressed male rats pretreated with saline. The results were expressed as a ratio with values less than 1.0 indicative of activity. The compound 6-chloro-3,4-dihydro-4-hydroxy-3-(3-(4-morpholinyl)propyl)-4-phenyl-2(1H)- quinazolinethione (Example 12) gave a value of 0.12.

[2] = tested on: norepinephrine uptake in synaptosome preparations; experiment: Uptake of norepinephrine in rat forebrain synaptosome preparations; assay type: biochemical, rats; conditions: 10 μg/ml, 37° C., rat forebrain synaptosomes, versus saline control; low values indicate activity
Experimental: (§1) Antidepressant activity may also be illustrated in vitro by measuring the uptake of the neurotransmittors norepinephrine and serotonin in synaptosome preparations prepared from the forebrains of rats. The synaptosome preparation is incubated at 37° C. with radioactive neurotransmittor and the test compound at a concentration of 10 μg/ml. The synaptosome are isolated and the uptake of labelled neurotransmittor measured by liquid scintillation spectrometry using standard techniques. Percent inhibiton of uptake is determined by comparing the radioactivity taken in the synaptosome preparation with that of a similarly incubated saline control. Low values indicate activity.

[3] = tested on: serotonin uptake in synaptosome preparations; experiment: Uptake of serotonin in rat forebrain synaptosome preparations; assay type: biochemical, rats; conditions: 10 μg/ml, 37° C., rat forebrain synaptosomes, versus saline control; low values indicate activity
Experimental: as §1

[4] = tested on: reserpine-induced ptosis; experiment: Protection against reserpine-induced ptosis in mice; assay type: in vivo; conditions: 60 mg/kg intraperitoneal, 30 minutes before 2.5 mg/kg reserpine subcutaneous, graded after 45 minutes
Experimental: A similar group of mice serving as controls were injected only with the carrier. After 30 minutes, both groups of mice were injected subcutaneously with 2.5 mg/kg of reserpine. […] Animals injected with the benzotriazepine compound were graded after 45 minutes on the following basis: no ptosis = 0, partial ptosis = 1, complete ptosis = 2.

With OC1(c2ccccc2)c2cc(Cl)ccc2NC(=S)N1CCCN1CCOCC1 (centres unmarked) [Example 12, 6-chloro-3,4-dihydro-4-hydroxy-3-(3-(4-morpholinyl)propyl)-4-phenyl-2(1H)-quinazolinethione] the “ratio of corticosteroid levels, stressed rats pretreated with compound to stressed rats pretreated with saline” value [1] was 0.12.
With CCN(CC)CCN1C(=S)Nc2ccc(Cl)cc2C1(O)c1ccccc1 (centres unmarked) [Example 8] the “norepinephrine uptake relative to saline control” value [2] was 3% and the “inhibition of seratonin uptake” value [3] was 7%.
With “6-chloro-3-(3-dimethylamino)propyl-3,4-dihydro-4-hydroxy-4-phenyl-2(1H)-quinazolinethione [Example 7]” the “sum of ptosis grades for the four test mice (no ptosis = 0, partial = 1, complete = 2; out of a possible 8)” value ([4]; controls 8) was 4 and the “protection against reserpine-induced ptosis” value ([4]; four mice) was 50%.
